US8101768B2, “Cyclic amine compound and pest control agent” (Nippon Soda Co., Ltd., priority 2004, dated 2012)

system: organophosphorous agent resistant two-spotted spider mites; test: Effect on Two-spotted Spider Mite (spray on kidney bean leaves); format: in vivo; conditions: 125 ppm, water dispersible powder of Formulation Example 1 sprayed, 17 female adults, 25° C., 65% humidity, 3 days
In short: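 Mortality of adult females counted after 3 days at 25 °C and 65% humidity, following a 125 ppm spray of wettable-powder dilution onto infested 7–10-day-old bean seedlings (17 mites per leaf). Two replicates.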

Row | Structure (SMILES) | rate of killed adults [%]
1 | C=C(C)COc1cc(C(F)(F)F)ccc1OC1C2CCC1CN(c1ccc(C(F)(F)F)cn1)C2 (stereo not shown) [5-174] | 100
2 | CCCOCc1cc(C(F)(F)F)ccc1OC1C2CCC1CN(c1ccc(C(F)(F)F)cn1)C2 (stereo not shown) [5-217] | 100
3 | FC(F)c1ccc(O[C@@H]2[C@@H]3CC[C@H]2CN(c2ccc(C(F)(F)F)cn2)C3)c(OCC2CC2)c1 [5-118] | 100
4 | CCc1cc(Cl)ccc1OC1CCN(c2ccc(C(F)(F)F)cn2)CC1 [1-54] | 100
5 | CC1COC(c2cc(C(F)(F)F)ccc2OC2C3CCC2CN(c2ccc(C(F)(F)F)cn2)C3)O1 (stereo not shown) [5-218] | 100
6 | CCCNc1cc(C(F)(F)F)ccc1OC1C2CCC1CN(c1ccc(C(F)(F)F)cn1)C2 (stereo not shown) [5-190] | 100
7 | CCCC(=O)c1cc(C(F)(F)F)ccc1OC1C2CCC1CN(c1ccc(C(F)(F)F)cn1)C2 (stereo not shown) [5-240] | 100
8 | FC(F)(F)c1ccc(N2C3CCC2CC(Oc2ccc(C(F)(F)F)cc2OCC=CCl)C3)nc1 (mixture of isomers) [2-148] | 100
9 | CCCCOc1cc(C(F)(F)F)ccc1OC1CC2CCC(C1)N2c1ccc(C(F)(F)F)cn1 (stereo not shown) [2-97] | 100
10 | CCC(=O)Oc1cc(C(F)(F)F)ccc1OC1C2CCC1CN(c1ccc(C(F)(F)F)cn1)C2 (stereo not shown) [5-198] | 100
11 | CC1CN=C(c2cc(C(F)(F)F)ccc2OC2CC3CCC(C2)N3c2ccc(C(F)(F)F)cn2)O1 (stereo not shown) [2-201] | 100
12 | CCS(=O)(=O)Oc1cc(C(F)(F)F)ccc1OC1CC2CCC(C1)N2c1ccc(C(F)(F)F)cn1 (stereo not shown) [2-152] | 100
13 | CCOc1cc(C(F)(F)F)ccc1OC1CCN(c2ccc(Cl)cn2)CC1 [1-90] | 100
14 | O=[N+]([O-])c1cc(C(F)(F)F)ccc1O[C@@H]1[C@@H]2CC[C@H]1CN(c1ccc(C(F)(F)F)cn1)C2 [5-38] | 100
15 | CCN(C)C(=O)c1cc(C(F)(F)F)ccc1O[C@@H]1[C@@H]2CC[C@H]1CN(c1ccc(C(F)(F)F)cn1)C2 [5-249] | 100
16 | C#CCOc1cc(C(F)(F)F)ccc1OC1CC2CCC(C1)N2c1ccc(C(F)(F)F)cn1 (stereo not shown) [2-143] | 100
17 | CCCOc1cc(C(F)(F)F)cc(Cl)c1OC1CCN(c2ccc(C(F)(F)F)cn2)CC1 [1-18] | 100
18 | COC(C)COc1cc(C(F)(F)F)ccc1OC1C2CCC1CN(c1ccc(C(F)(F)F)cn1)C2 (stereo not shown) [5-128] | 100
19 | CCC(C)C(O)c1cc(C(F)(F)F)ccc1OC1CC2CCC(C1)N2c1ccc(C(F)(F)F)cn1 (stereo not shown) [2-194] | 100
20 | Cc1coc(-c2cc(C(F)(F)F)ccc2OC2CC3CCC(C2)N3c2ccc(C(F)(F)F)cn2)n1 (stereo not shown) [2-209] | 100
21 | CC(COc1cc(C(F)(F)F)ccc1OC1C2CCC1CN(c1ccc(C(F)(F)F)cn1)C2)=NO (stereo not shown) [5-182] | 100
22 | CC(CCl)OC(=O)c1cc(C(F)(F)F)ccc1OC1CC2CCC(C1)N2c1ccc(C(F)(F)F)cn1 (stereo not shown) [2-233] | 100
23 | Cc1ccc(N2CC3CCC(C2)C3Oc2ccc(C(F)(F)F)cc2OC2CC2(Cl)Cl)nc1 (stereo not shown) [5-210] | 100
24 | FC(F)(F)c1ccc(N2CC3CCC(C2)C3Oc2ccc(C(F)(F)F)cc2OCC2CCOC2)nc1 (stereo not shown) [5-205] | 100
25 | C=CCCOc1cc(C(F)(F)F)ccc1OC1C2CCC1CN(c1ccc(C(F)(F)F)cn1)C2 (stereo not shown) [5-176] | 100
26 | C#CCOc1cc(C(F)(F)F)ccc1OC1CCN(c2ccc(C(F)(F)F)cn2)CC1 [1-163] | 100
27 | FC(F)(F)c1ccc(N2[C@@H]3CC[C@H]2C[C@@H](Oc2ccc(C(F)(F)F)cc2SCC2CC2)C3)nc1 [2-166] | 100
28 | FC(F)(F)c1ccc(N2C3CCC2CC(Oc2ccc(C(F)(F)F)cc2OCCCl)C3)nc1 (stereo not shown) [2-138] | 100

Row | Structure (SMILES) | rate of killed adults [%]
29 | CC(O)COc1cc(C(F)(F)F)ccc1OC1C2CCC1CN(c1ccc(C(F)(F)F)cn1)C2 (stereo not shown) [5-127] | 100
30 | CCCCOCc1cc(C(F)(F)F)ccc1OC1C2CCC1CN(c1ccc(C(F)(F)F)cn1)C2 (stereo not shown) [5-223] | 100
31 | FC(F)(F)c1ccc(N2CCC(Oc3ccc(C(F)(F)F)cc3CCl)CC2)nc1 [1-81] | 100
32 | C=CCc1cc(C(F)(F)F)ccc1O[C@@H]1[C@@H]2CC[C@H]1CN(c1ccc(C(F)(F)F)cn1)C2 [5-75] | 100
33 | COC=Cc1cc(C(F)(F)F)ccc1O[C@@H]1[C@@H]2CC[C@H]1CN(c1ccc(C(F)(F)F)cn1)C2 [5-247] | 100
34 | CCCN(C)c1cc(C(F)(F)F)ccc1OC1CC2CCC(C1)N2c1ccc(C(F)(F)F)cn1 (stereo not shown) [2-161] | 100
35 | FC(F)(F)c1ccc(O[C@@H]2[C@@H]3CC[C@H]2CN(c2ccc(C(F)(F)F)cn2)C3)cc1 [5-264] | 100
36 | CCCOc1cc(C(F)(F)F)ccc1OC1CC2CCC(C1)N2c1ccc(Cl)cn1 (stereo not shown) [2-85] | 100
37 | FC(F)(F)c1ccc(N2CC3CCC(C2)C3Oc2ccc(C(F)(F)F)cc2OCC2CCCO2)nc1 (stereo not shown) [5-204] | 100
38 | CCCOc1cc(C(F)(F)F)ccc1OC1CC2CCC(C1)N2c1ccc(C(F)(F)F)c[n+]1[O-] (stereo not drawn) [2-83, 3α-[2-propoxy-4-(trifluoromethyl)phenoxy]-8-[5-(trifluoromethyl)-2-pyridyl-1-oxy]-8-azabicyclo[3.2.1]octane] | 100
39 | CSCOc1cc(C(F)(F)F)ccc1OC1CC2CCC(C1)N2c1ccc(C(F)(F)F)cn1 (stereo not shown) [2-182] | 100
40 | FC(F)(F)c1ccc(N2CC3CCC(C2)C3Oc2ccc(C(F)(F)F)cc2OCc2ccco2)nc1 (stereo not shown) [5-206] | 100
41 | OCCOc1cc(C(F)(F)F)ccc1OC1CCN(c2ccc(C(F)(F)F)cn2)CC1 [1-118] | 100
42 | FC(F)(F)c1ccc(N2C3CCC2CC(Oc2ccc(C(F)(F)F)cc2OCC2CC2)C3)nc1 (stereo not shown) [2-105] | 100
43 | C=CC(C)OC(=O)c1cc(C(F)(F)F)ccc1OC1CC2CCC(C1)[N+]2([O-])c1ccc(C(F)(F)F)cn1 (stereo not shown) [2-247] | 100
44 | FC(F)(F)c1ccc(N2CC3CCC(C2)C3Oc2ccc(C(F)(F)F)cc2OCc2ccccn2)nc1 (stereo not shown) [5-212] | 100
45 | CCOc1cc(C(F)(F)F)ccc1OC1CC2CCC(C1)N2c1ccc(C(F)(F)F)cn1 (stereo not shown) [2-78] | 100
46 | CC(Br)COc1cc(C(F)(F)F)ccc1OC1CC2CCC(C1)N2c1ccc(C(F)(F)F)cn1 (stereo not shown) [2-195] | 100
47 | CCCC(=O)Oc1cc(C(F)(F)F)ccc1OC1C2CCC1CN(c1ccc(C(F)(F)F)cn1)C2 (stereo not shown) [5-199] | 100
48 | CC(C)(C)CC(O)c1cc(C(F)(F)F)ccc1O[C@@H]1[C@@H]2CC[C@H]1CN(c1ccc(C(F)(F)F)cn1)C2 (stereo partly shown) [5-255] | 100
49 | CC(C)(C)OC(=O)c1cc(C(F)(F)F)ccc1OC1CC2CCC(C1)N2c1ccc(C(F)(F)F)cn1 (stereo not shown) [2-198] | 100
50 | COCCOC(=O)c1cc(C(F)(F)F)ccc1OC1CC2CCC(C1)N2c1ccc(C(F)(F)F)cn1 (stereo not shown) [2-230] | 100
51 | CC1(C)COC(c2cc(C(F)(F)F)ccc2OC2CC3CCC(C2)N3c2ccc(C(F)(F)F)cn2)=N1 (stereo not shown) [2-210] | 100
52 | FC(F)(F)c1ccc(OC2CCN(c3ccc(C(F)(F)F)cn3)C2)cc1 (stereo not shown) [8-63, 3-[4-(trifluoromethyl)phenoxy]-1-[5-(trifluoromethyl)-2-pyridy]pyrrolidine] | 100
53 | COC(C)COc1cc(C(F)(F)F)ccc1OC1CC2CCC(C1)N2c1ccc(C(F)(F)F)cn1 (stereo not shown) [2-130] | 100
54 | FC(F)(F)c1ccc(N2CCC(Oc3ccc(Br)cc3)CC2)nc1 [1-19] | 100
55 | CCCOc1cc(C(F)(F)F)ccc1O[C@@H]1[C@@H]2CC[C@H]1CN(c1ccc(C=O)cn1)C2 [5-100] | 100

system: acaricide resistant citrus red mites; test: Effect on Citrus Red Mite (spray on mandarin orange leaves); format: in vivo; conditions: 31 ppm, emulsifiable concentrate of Formulation Example 2 sprayed, 10 female adults, 25° C., 65% humidity
Experimental: Effect on Citrus Red Mite
10 female adults of acaricide resistant citrus red mites were inoculated onto leaves of a mandarin orange placed on dishes, onto which each of liquid agents, diluted with water so as to adjust the respective concentration of the chemical compounds to 31 ppm according to the formulation of the emulsifiable concentrate shown in the aforementioned Formulation Example 2, was sprayed by using a rotating sparge tower. After they were left in a thermostatic chamber at 25° C. in 65% humidity for 3 days, and were then removed from the dishes, eggs laid for 3 days were investigated whether they could grow to adults or not on the eleventh day. As the results, the following chemical compounds killed 100% of the adults. 1-13, 1-15, 1-22, 1-27, 1-45, 1-54, 1-59, 1-63, 1-66, 1-69, 1-71, 1-72, 1-75, 1-80, 1-88, 1-89, 1-92, 1-93, 1-94, 1-97, 1-98, 1-100, 1-102, 1-105, 1-108, 1-133, 1-136, 1-142, 1-153, 1-181, 1-183, 1-186, 1-187, 1-188, 1-189, 1-190, 1-191,

Row | Structure (SMILES) | killed ... of the adults (eggs laid for 3 days investigated whether they could grow to adults on the eleventh day) [%]
56 | C=C(C)COc1cc(C(F)(F)F)ccc1OC1C2CCC1CN(c1ccc(C(F)(F)F)cn1)C2 (stereo not shown) [5-174] | 100
57 | CCCOCc1cc(C(F)(F)F)ccc1OC1C2CCC1CN(c1ccc(C(F)(F)F)cn1)C2 (stereo not shown) [5-217] | 100
58 | FC(F)c1ccc(O[C@@H]2[C@@H]3CC[C@H]2CN(c2ccc(C(F)(F)F)cn2)C3)c(OCC2CC2)c1 [5-118] | 100
59 | CCc1cc(Cl)ccc1OC1CCN(c2ccc(C(F)(F)F)cn2)CC1 [1-54] | 100
60 | CC1COC(c2cc(C(F)(F)F)ccc2OC2C3CCC2CN(c2ccc(C(F)(F)F)cn2)C3)O1 (stereo not shown) [5-218] | 100
61 | CCCNc1cc(C(F)(F)F)ccc1OC1C2CCC1CN(c1ccc(C(F)(F)F)cn1)C2 (stereo not shown) [5-190] | 100
